Results published in ChEMBL document CHEMBL1201862, “PubChem BioAssay data set” (2004).
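Values below derive from 48-hour exposures of cells grown in 96-well plates, with endpoints linearly interpolated between the two concentrations bracketing the appropriate inhibition level. GI50: concentration for 50% inhibition of growth.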 Calls of active or inactive are those of the source. Rule as the data show it: active = GI50 up to about 1.1 µM and inactive = higher. Non-standard residues stand in square brackets, D forms with d. Residues, ends and D or L forms follow the SMILES beside them. ξ: configuration not given here. *: point of attachment. ξF = NC(Cc1ccccc1)C(=O)O; Cbz = O=C(OCc1ccccc1)*

Legend:
Assay in all cases: NCI anticancer screen, dose series, 48 h
HL-60 = tested on: HL-60
SK-MEL-5 = tested on: SK-MEL-5
NCI-H23 = tested on: NCI-H23
T47D = tested on: T47D
HT-29 = tested on: HT-29
TK-10 = tested on: TK-10
Malme-3M = tested on: Malme-3M
MDA-N = tested on: MDA-N
SN12C = tested on: SN12C
NCI/ADR-RES = tested on: NCI/ADR-RES
ACHN = tested on: ACHN
HCC 2998 = tested on: HCC 2998
MDA-MB-231 = tested on: MDA-MB-231
PC-3 = tested on: PC-3
OVCAR-3 = tested on: OVCAR-3
SNB-75 = tested on: SNB-75
IGROV-1 = tested on: IGROV-1
M14 = tested on: M14
KM12 = tested on: KM12
NCI-H522 = tested on: NCI-H522

| SMILES | GI50 (HL-60) | GI50 (SK-MEL-5) | GI50 (NCI-H23) | GI50 (T47D) | GI50 (HT-29) | GI50 (TK-10) | GI50 (Malme-3M) | GI50 (MDA-N) | GI50 (SN12C) | GI50 (NCI/ADR-RES) | GI50 (ACHN) | GI50 (HCC 2998) | GI50 (MDA-MB-231) | GI50 (PC-3) | GI50 (OVCAR-3) | GI50 (SNB-75) | GI50 (IGROV-1) | GI50 (M14) | GI50 (KM12) | GI50 (NCI-H522) |
| --- | --- | --- | --- | --- | --- | --- | --- | --- | --- | --- | --- | --- | --- | --- | --- | --- | --- | --- | --- | --- |
| CN1C(=O)N/C(=C\c2ccc(S(=O)(=O)NN)cc2)C1=O | > 100 µM (inactive) | > 100 µM (inactive) | > 100 µM (inactive) | > 100 µM (inactive) | > 100 µM (inactive) | > 100 µM (inactive) | > 100 µM (inactive) | > 100 µM (inactive) | > 100 µM (inactive) | > 100 µM (inactive) | > 100 µM (inactive) | > 100 µM (inactive) | > 100 µM (inactive) | > 100 µM (inactive) | > 100 µM (inactive) | > 100 µM (inactive) | > 100 µM (inactive) | > 100 µM (inactive) | > 100 µM (inactive) |  |
| C=C1c2nc3ccccc3n2C=C(c2ccc(Cl)cc2)N1c1ccc(OCCN2CCOCC2)cc1 | 7.91 µM (inactive) | 13.4 µM (inactive) | 28.2 µM (inactive) | 21.4 µM (inactive) | 12.2 µM (inactive) | 35.9 µM (inactive) | 52 µM (inactive) | 42.2 µM (inactive) | > 100 µM (inactive) | 12.3 µM (inactive) | 34.9 µM (inactive) | 37.9 µM (inactive) | 62.4 µM (inactive) | 10.5 µM (inactive) | 37.2 µM (inactive) | > 100 µM (inactive) | 14.5 µM (inactive) | 15.7 µM (inactive) | 11.4 µM (inactive) |  |
| CC(C)=CCC[C@](C)(O[C@@H]1O[C@H](CO)[C@@H](O)[C@H](O)[C@H]1O)[C@H]1CC[C@]2(C)[C@@H]1[C@H](O)C[C@@H]1[C@@]3(C)CC[C@H](O)C(C)(C)[C@@H]3[C@@H](O[C@@H]3O[C@H](CO)[C@@H](O)[C@H](O)[C@H]3O[C@@H]3O[C@@H](C)[C@H](O)[C@@H](O)[C@H]3O)C[C@]12C.CC(C)=CCC[C@](C)(O[C@@H]1O[C@H](CO)[C@@H](O)[C@H](O)[C@H]1O)[C@H]1CC[C@]2(C)[C@@H]1[C@H](O)C[C@@H]1[C@@]3(C)CC[C@H](O)C(C)(C)[C@@H]3[C@@H](O[C@@H]3O[C@H](CO)[C@@H](O)[C@H](O)[C@H]3O[C@@H]3O[C@H](CO)[C@@H](O)[C@H](O)[C@H]3O)C[C@]12C | > 75 µM (inactive) | > 75 µM (inactive) | > 75 µM (inactive) | > 75 µM (inactive) | > 75 µM (inactive) | > 75 µM (inactive) |  | > 75 µM (inactive) | > 75 µM (inactive) | > 75 µM (inactive) | > 75 µM (inactive) | > 75 µM (inactive) | > 75 µM (inactive) | > 75 µM (inactive) | > 75 µM (inactive) | > 75 µM (inactive) | > 75 µM (inactive) | > 75 µM (inactive) | > 75 µM (inactive) | > 75 µM (inactive) |
| O=C1CC(C(=O)O)Cc2c(Br)ccc(O)c21 (centres undefined) | > 100 µM (inactive) | > 100 µM (inactive) | > 100 µM (inactive) | > 100 µM (inactive) | > 100 µM (inactive) | > 100 µM (inactive) | > 100 µM (inactive) | > 100 µM (inactive) | > 100 µM (inactive) | > 100 µM (inactive) | > 100 µM (inactive) | > 100 µM (inactive) | > 100 µM (inactive) | > 100 µM (inactive) | > 100 µM (inactive) |  | > 100 µM (inactive) | > 100 µM (inactive) | > 100 µM (inactive) | > 100 µM (inactive) |
| CCC/N=C/c1c(O)c(O)c(C(C)C)c2cc(C)c(-c3c(C)cc4c(C(C)C)c(O)c(O)c(/C=N/CCC)c4c3O)c(O)c12 | 3.01 µM (inactive) | 18.7 µM (inactive) | 6.1 µM (inactive) | 7.74 µM (inactive) | 4.04 µM (inactive) | > 100 µM (inactive) |  | 8.63 µM (inactive) | 10.4 µM (inactive) | 30.1 µM (inactive) | 3.99 µM (inactive) | 8.61 µM (inactive) | 13.9 µM (inactive) | 2.48 µM (inactive) | 3.88 µM (inactive) | 8.79 µM (inactive) | 11.1 µM (inactive) | 7.41 µM (inactive) | 3.45 µM (inactive) | 1.53 µM (inactive) |
| Cc1cc(O)c2c3c(ccc2c1)C(=O)c1c(O)cccc1C3=O [TETRANGULOL] | 0.692 µM (active) | 0.33 µM (active) | 3.98 µM (inactive) | 5.14 µM (inactive) | 8.15 µM (inactive) | 54.5 µM (inactive) | 0.0157 µM (active) | 0.188 µM (active) | 72.6 µM (inactive) | 5.97 µM (inactive) | 17.7 µM (inactive) | 5.15 µM (inactive) | 17.5 µM (inactive) | 16.1 µM (inactive) | 0.397 µM (active) |  | 2.21 µM (inactive) | 0.675 µM (active) | 3.88 µM (inactive) | 0.957 µM (active) |
| CCC(=O)n1c(=O)n(-c2ccc([N+](=O)[O-])cc2)c(=O)n1C(=O)CC | > 100 µM (inactive) | > 100 µM (inactive) | > 100 µM (inactive) | > 100 µM (inactive) | > 100 µM (inactive) | > 100 µM (inactive) |  | > 100 µM (inactive) | > 100 µM (inactive) | > 100 µM (inactive) | > 100 µM (inactive) | > 100 µM (inactive) | > 100 µM (inactive) | > 100 µM (inactive) | > 100 µM (inactive) | > 100 µM (inactive) | > 100 µM (inactive) | > 100 µM (inactive) | > 100 µM (inactive) | > 100 µM (inactive) |
| CCCCOCOc1ccccc1P1(=O)COc2ccccc2OC1 | 34.7 µM (inactive) | > 100 µM (inactive) | > 100 µM (inactive) | 45.4 µM (inactive) | > 100 µM (inactive) | 20.8 µM (inactive) | > 100 µM (inactive) | > 100 µM (inactive) | > 100 µM (inactive) | > 100 µM (inactive) | 86.7 µM (inactive) | > 100 µM (inactive) | 43.4 µM (inactive) | 55.3 µM (inactive) | 68.7 µM (inactive) | > 100 µM (inactive) | > 100 µM (inactive) | 83.9 µM (inactive) | > 100 µM (inactive) |  |
| Oc1c(Br)cc(/C=C/c2cccc(/C=C/c3cc(Br)c(O)c(Br)c3)n2)cc1Br | 2.03 µM (inactive) | 7.06 µM (inactive) |  | 5.89 µM (inactive) | 12.6 µM (inactive) | 14.2 µM (inactive) |  | 18.8 µM (inactive) | 9.68 µM (inactive) | 21.6 µM (inactive) | 6.38 µM (inactive) | 6.5 µM (inactive) | 14.8 µM (inactive) | 7.52 µM (inactive) | 14.1 µM (inactive) | 4.34 µM (inactive) | 13.4 µM (inactive) | 13.8 µM (inactive) | 5.66 µM (inactive) |  |
| COCOc1cc(OC)ccc1C/C=N/O | > 100 µM (inactive) | > 100 µM (inactive) | > 100 µM (inactive) | > 100 µM (inactive) | > 100 µM (inactive) | > 100 µM (inactive) | > 100 µM (inactive) | > 100 µM (inactive) | > 100 µM (inactive) | > 100 µM (inactive) | > 100 µM (inactive) | > 100 µM (inactive) | > 100 µM (inactive) | > 100 µM (inactive) | > 100 µM (inactive) |  | > 100 µM (inactive) | > 100 µM (inactive) | > 100 µM (inactive) | > 100 µM (inactive) |
| CCCCNC(=S)Nc1nc(C(=O)NNC(=S)Nc2ccccc2)cs1 |  | 40.4 µM (inactive) | > 100 µM (inactive) | > 100 µM (inactive) | > 100 µM (inactive) | > 100 µM (inactive) |  | > 100 µM (inactive) | > 100 µM (inactive) | > 100 µM (inactive) | > 100 µM (inactive) | > 100 µM (inactive) | 30.3 µM (inactive) | > 100 µM (inactive) | > 100 µM (inactive) | 38.3 µM (inactive) |  | 82.8 µM (inactive) | > 100 µM (inactive) |  |
| Cc1ccc(/C=C2\CN(C)CC3C2=NN(c2ccccc2)C3c2ccc(C)cc2)cc1 (centres undefined) |  | > 100 µM (inactive) | > 100 µM (inactive) | > 100 µM (inactive) | > 100 µM (inactive) | > 100 µM (inactive) | 36.6 µM (inactive) | > 100 µM (inactive) | > 100 µM (inactive) | > 100 µM (inactive) | > 100 µM (inactive) | > 100 µM (inactive) | > 100 µM (inactive) | 38.9 µM (inactive) | > 100 µM (inactive) |  | > 100 µM (inactive) | 57.4 µM (inactive) | > 100 µM (inactive) | > 100 µM (inactive) |
| CCOC(=O)CNC(=O)C(Cc1ccccc1)NC(=O)OCc1ccccc1 (centres undefined) (Cbz-[ξF]-Gly-OEt) | > 100 µM (inactive) | > 100 µM (inactive) | > 100 µM (inactive) | 71.9 µM (inactive) | > 100 µM (inactive) |  | 86.3 µM (inactive) | > 100 µM (inactive) | > 100 µM (inactive) | > 100 µM (inactive) | > 100 µM (inactive) | > 100 µM (inactive) | > 100 µM (inactive) | > 100 µM (inactive) | > 100 µM (inactive) | > 100 µM (inactive) | > 100 µM (inactive) | > 100 µM (inactive) | > 100 µM (inactive) |  |
| O=c1cc(N2CCN(c3cc(=O)n4ccccc4n3)CC2)oc2ccccc12 |  | 65.9 µM (inactive) | 99.1 µM (inactive) | > 73.5 µM (inactive) | 38 µM (inactive) | > 100 µM (inactive) | > 100 µM (inactive) | > 100 µM (inactive) | > 92.7 µM (inactive) | > 66.8 µM (inactive) | > 100 µM (inactive) | 33.5 µM (inactive) | 61.9 µM (inactive) | > 100 µM (inactive) | > 100 µM (inactive) | 9.06 µM (inactive) | 95.5 µM (inactive) | 34.7 µM (inactive) | 35.4 µM (inactive) | 29.8 µM (inactive) |
